# Measured values from patent publication US10576148B2, “Use of VAP-1 inhibitors for treating fibrotic conditions” (BIOTIE THERAPIES CORP., priority 2009, dated 2020).
# How the values were obtained:
# ApoE3 Leiden mice = assay: cuff-induced neointimal thickening in femoral artery; assay type: in vivo, mouse; conditions: for intima media ratio: vs control group; for lumen size (HPS stained vessel segments): vs control group A
# Source text: Neointimal and medial thickening is an early and essential stage in the development of atherosclerotic lesions and an essential component of restenosis. It is accompanied by fibrotic changes in the neointima and media of the vascular wall. This study evaluated the role of blocking SSAO in fibrotic disease by evaluating the effect of systemic delivery (by daily ip injection) of a small molecule SSAO inhibitor (mofegiline, BTT-2089) on cuff-induced neointimal thickening (cuff-induced stenosis) in the femoral artery of ApoE3 Leiden mice that received a moderate western type diet.
# Methods: 40 male ApoE3*Leiden mice (age 12 weeks) were fed a mildly hypercholesterolemic diet for 3 weeks prior to surgical cuff placement. Treatment was daily ip injections with 1) vehicle; 2) dexamethasone in drinking water at 9 mg/I; 3) daily ip injections of BTT-2089 at 10 mg/kg; 4) BTT-2089 at 30 mg/kg, all started one day prior to surgery and continued during the experimental period. At day 0 surgery was performed, i.e. a non-constricting cuff (2-3 mm in length) was placed around both femoral arteries of the mice. 10 mice of each group were sacrificed after 2 weeks for histomorphometric analysis to quantify the inhibition of accelerated atherosclerotic lesions and neointima formation. […] This was reflected in the increased lumen size in examples of HPS stained vessel segments in SSAO inhibitor treated groups when compared to a control group (FIG. 12).
# A second study, in the same model, was performed with another SSAO inhibitor from a chemical class distinct from BTT-2089. This hydrazine based inhibitor (BTT-2079) was dosed at a level of 10 mg/kg by daily i.p injection and compared with BTT-2089 at 30 mg/kg. In all other respects the study was performed in the same manner except that the dexamethasone control group was omitted. […] Vascular integrity was not affected.
# C57BL/6J mice = assay: tobacco smoke induced mouse model of COPD, BAL cell counts; assay type: in vivo; conditions: for reduction of total number of cells in BAL: 5 mg/kg orally once daily 11 days, 1 h prior to TS
# Procedure: C57BL/6J mice were exposed once daily to tobacco smoke (TS) for 11 consecutive days resulting in pulmonary inflammation 24 hours following the final TS exposure. After 11 days the response comprised of significant increases in macrophages, epithelial cells, eosinophils, neutrophils and lymphocytes.
# Mice were randomly divided into study groups (n=10) and treated with a vehicle (5 ml/kg PBS pH 7.4+0.1% Polysorbate 80) or mouse monoclonal anti-VAP-1 antibody (3 mg/kg or 9 mg/kg BTT-1029 in the vehicle) intravenously on Days −1, 3, 6, and 9 at 4 h post TS exposure. Another group (n=10) received the vehicle intravenously and was exposed to air for an equivalent length of time. Two further groups of mice (n=10) received another vehicle (0.5% carboxymethylcellulose, sodium salt (CMC) in sterile water) or a reference compound (5 mg/kg Roflumilast in 0.5% CMC) orally once a day for 11 consecutive days at 1 h prior to each TS exposure. A final group (n=10) received the oral vehicle (0.5% CMC) and was exposed to air for an equivalent length of time.
# All results were presented as individual data points for each animal and the mean value calculated for each group. Where tests for normality were positive the data initially was subjected to a one way analysis of variance test (ANOVA), followed by a Bonferroni correction for multiple comparisons in order to test for significance between treatment groups. A “p” value of ≤0.05 was considered to be statistically significant.
# All data was also subjected to the Bartlets test for equal variances and for the majority of studies variances were generally equal, however as occurred in this study, occasionally some treatment groups would give a positive result. Non parametric analyses were therefore also used. As the data was normally distributed, parametric analyses (ANOVA) were quoted.
# Percentage inhibitions were automatically calculated within the Excel spreadsheets for the cell data using the formula below: […]
# [1] = second study, 10 mg/kg i.p. daily
# [2] = first study, 10 mg/kg ip daily, 2 weeks, vs NaCl 0.9% control
# [3] = first study, 30 mg/kg ip daily, 2 weeks, vs NaCl 0.9% control
# [4] = second study, 30 mg/kg i.p. daily
smiles,measurement,setting,value
"CN(N)[C@H](c1ccccc1)[C@@H](O)c1ccccc1 [BTT-2079, (1S,2R)-2-(1-methylhydrazino)-1,2-diphenylethanol]",lumen area,ApoE3 Leiden mice; [1],No significant changes
same,media area,ApoE3 Leiden mice; [1],No significant changes
same,neointima formation,ApoE3 Leiden mice; [1],significant reduction
same,percentage lumen stenosis,ApoE3 Leiden mice; [1],only significantly less in the BTT-2089 30 mg/kg group
same,vascular integrity,ApoE3 Leiden mice; [1],not affected
same,vessel wall diameter,ApoE3 Leiden mice; [1],No significant changes
same,intima media ratio,ApoE3 Leiden mice; [1],significantly less
"NC/C(=C/F)CCc1ccc(F)cc1 [BTT-2089, (E)-2-(4-fluorophenethyl)-3-fluoroallylamine]",media formation,ApoE3 Leiden mice; [2],significant reduction
same,neointima formation,ApoE3 Leiden mice; [2],significant reduction
same,lumen size (HPS stained vessel segments),"ApoE3 Leiden mice; first study, 10 mg/kg",increased
same,media formation,ApoE3 Leiden mice; [3],significant reduction
same,neointima formation,ApoE3 Leiden mice; [3],significant reduction
same,lumen size (HPS stained vessel segments),"ApoE3 Leiden mice; first study, 30 mg/kg",increased
same,lumen area,ApoE3 Leiden mice; [4],No significant changes
same,media area,ApoE3 Leiden mice; [4],No significant changes
same,neointima formation,ApoE3 Leiden mice; [4],significant reduction
same,percentage lumen stenosis,ApoE3 Leiden mice; [4],significant reduction
same,vascular integrity,ApoE3 Leiden mice; [4],not affected
same,vessel wall diameter,ApoE3 Leiden mice; [4],No significant changes
same,intima media ratio,ApoE3 Leiden mice; [4],significantly less
O=C(Nc1c(Cl)cncc1Cl)c1ccc(OC(F)F)c(OCC2CC2)c1 [Roflumilast],number of eosinophils in BAL,C57BL/6J mice; 5 mg/kg orally once daily,did not significantly reduce
same,number of macrophages in BAL,C57BL/6J mice; 5 mg/kg orally once daily,did not significantly reduce
same,reduction of epithelial cells in BAL,C57BL/6J mice; 5 mg/kg orally once daily,51%
same,reduction of lymphocytes in BAL,C57BL/6J mice; 5 mg/kg orally once daily,65%
same,reduction of neutrophils in BAL,C57BL/6J mice; 5 mg/kg orally once daily,63%
same,reduction of total number of cells in BAL,C57BL/6J mice,41%
same,reduction of total number of cells in BAL,C57BL/6J mice; listed as roflumilast,reduction
